Measured values published in patent publication US20250090437A1, “COSMETIC COMPOUNDING AGENT, COSMETIC AND PRODUCTION METHOD THEREOF” (MIYOSHI OIL & FAT CO., LTD., priority 2019, published 2025).

How the values were obtained:
[1] = Water retention property test 3 (long term); format: physicochemical; settings: 80 wt % aqueous solution, 40° C. and 25% RH
Description: In a water retention property test 3, an 80 wt % aqueous solution of each of the compounds C8, C11, C62, C63 and C64 was prepared, followed by using a Karl Fischer moisture meter to confirm that a moisture rate was 20.0 wt %. Next, 1.0 g of each of these samples was added to a screw tube, and this screw tube, while remaining unsealed, was then left to stand still in a thermo-hygrostat set to 40° C. and 25% RH. […] In addition, the water retention property was evaluated by calculating an amount of moisture reduction per hour (mg/h) based on each amount of moisture reduction (mg).

[2] = Sensory evaluation on damaged hair after using organic ammonium salt; design: species or system human; settings: damaged hair, 80 wt % aqueous solution
Description: Here, an 80 wt % aqueous solution(s) of each of the compounds B11, B12, B23, B26 and B27 (content in terms of anhydride in the cases of the compounds B11, B12 and B23) were prepared and used as samples. Next, one minute was spent in evenly applying 10.0 g of each sample to a bundle of the damaged hairs weighing about 10 g, using a brush; the bundle of the damaged hairs was then left for 5 min. After leaving it for 5 min, the bundle of the damaged hairs was rinsed with a hot water of 40° C. for 30 sec, and evaluated was a finger-combing capability at the time of performing washing. The hair bundle that had been rinsed was then dried with a towel and further subjected to air drying for a day, followed by evaluating items such as elasticity/resilience (feeling by bare hands), cohesiveness, surface smoothness and non-waviness, from the perspective of superiority or inferiority to a test hair bundle(s) uncoated with the sample.

[3] = tested on: keratin; assay: Stabilization effect of hair treatment agent on keratin (IR, 130° C., seven days); settings: treated keratin after 130° C. for seven days
Description: Here, 0.3 g of the keratin that had been treated in 4-1 was placed into a thermostatic device of 130° C. and left to stand still therein for seven days. After seven days, an IR spectrum of the keratin obtained was measured; by measuring an absorption derived from the α-helix secondary structure of amide, a stabilization effect of the hair treatment agent on the structure of keratin was evaluated.
Next, IR measurement was carried out after performing the heating test at 130° C. to obtain peaks derived from each amide and an intensity ratio(s) thereof to a reference peak (reference peak (derived from C—N) 1086 cm^−1, peak 1654 cm^−1 derived from the α-helix secondary structure of amide). The intensity ratio (X) was evaluated as “intensity of reference peak:intensity of peak derived from amide=1:X,” by reading the absorption intensity of the reference peak and the intensity of the peak derived from amide.

[4] = Sensory evaluation on healthy hair after using shampoo agent containing organic ammonium salt; design: species or system human; settings: shampoo agent containing 3.0% by mass of the compound; treated 10 times
Description: (§1) Next, the mixture was cooled to a temperature of 30° C. or lower, and a purified water of an evaporated amount was then added thereto so that the whole hair treatment composition would be 100% by mass, followed by uniformly mixing them so as to obtain a hair treatment composition(s). The pH level of the hair treatment composition was adjusted to pH 6.0 by adding a citric acid or sodium hydroxide.
About 5 g of the healthy hair was taken and dipped into 350 ml of a seven-time dilute aqueous solution of each of the abovementioned hair treatment compositions (shampoo agents) at 35 to 40° C. so as to be washed. The healthy hair was then subjected to a rinsing treatment five times using 500 ml of a warm water of 35 to 40° C., followed by drying the same at 80° C., and then performing air drying at 25° C. Such series of treatment involving hair washing, rinsing and drying was repeated 10 times to then evaluate a cohesiveness of the hair, a moist feeling of the hair, a gloss of the hair, a surface smoothness of the hair and a non-stickiness on the surface of the hair, after performing air drying.

[5] = Permeability to skin (horny layer tape stripping method); format: in vivo; settings: extraction liquid, an hour after application to the arm, HPLC
Description: Skin permeability was evaluated by a horny layer tape stripping method. […] A sample was applied to the arm and then left thereon for an hour before performing tape stripping on the horn by eight layers. An adhered substance on this tape was then extracted with an ion-exchange water over the course of 10 min, followed by filtrating an extraction liquid thus obtained with a 0.2 μm filter, and then quantifying, via HPLC, the amount of each of the compounds C20, C64 and C97 in each extraction liquid filtrated.

[6] = Solubility of active ingredient (gallic acid) in aqueous solution of the compound; settings: in 1.8 g compound + 8.2 g ion-exchange water
[7] = Solubility of active ingredient (glutamic acid) in aqueous solution of the compound; settings: in 1.8 g compound + 8.2 g ion-exchange water
[8] = Sensory evaluation on damaged hair after using shampoo agent containing organic ammonium salt; design: species or system human; settings: shampoo agent containing the compound; treated 10 times
Description: as §1
The damaged hair was repeatedly treated 10 times in a similar manner as 3-1; evaluated were a cohesiveness of the hair, surface smoothness of the hair and waviness of the hair after performing air drying.

[9] = Surface resistance measurement of organic ammonium salt; settings: 0.7 g applied to polyurethane artificial leather; liquid state; uncoated greater than 4×10^11Ω
[10] = tested on: keratin; assay: Keratin adherability; settings: 1 g keratin in 2 g of 50 wt % aqueous solution, 25° C., 24 hours
Description: Here, 1 g of a powdery keratin (by Tokyo Chemical Industry Co., Ltd.) (pre-test keratin) was added to 2 g of a 50 wt % aqueous solution of each of the compounds B11, B23, B26 and B27, followed by performing stirring at 25° C. for 24 hours. After stirring, filtration was performed, and a powdery keratin obtained was then dried so as to obtain a keratin that had been treated (post-test keratin).
A rate of compound adhesion to keratin was calculated with the following formula.

Amount of moisture reduction in 120 to 144 h ([1]; unsealed): 29.4 mg | Amount of moisture reduction in 144 to 168 h ([1]; unsealed): 30.0 mg | Amount of moisture reduction in 168 to 192 h ([1]; unsealed): 13.1 mg | Moisture rate after 144 h ([1]; unsealed): 5.4% | Moisture rate after 168 h ([1]; unsealed): 1.9% | Moisture rate after 192 h ([1]; unsealed): 0.3% | Amount of moisture reduction per hour ([1]; 120~144 h): 1.2 mg/h | Amount of moisture reduction per hour ([1]; 144~168 h): 1.3 mg/h | Amount of moisture reduction per hour ([1]; 168~192 h): 0.5 mg/h | Compound concentration ([5]; Tape stripping layer 1): 0.030 ml/L | Compound concentration ([5]; Tape stripping layer 2): 0.014 ml/L | Compound concentration ([5]; Tape stripping layer 3): 0.009 ml/L | Compound concentration ([5]; Tape stripping layer 4): 0.009 ml/L | Compound concentration ([5]; Tape stripping layer 5): 0.008 ml/L | Compound concentration ([5]; Tape stripping layer 6): 0.006 ml/L | Compound concentration ([5]; Tape stripping layer 7): 0.006 ml/L | Compound concentration ([5]; Tape stripping layer 8): 0.006 ml/L | Amount of dissolution Gallic acid [6]: 0.08 g | Amount of dissolution Glutamic acid [7]: <0.08 g | Surface resistance value [9]: 5×10^8 Ω
SMILES: OCC(O)CO [Compound A52, glycerin, reference compound]
After air drying: Cohesiveness of hair [2]: Δ~X | After air drying: Elasticity/Resilience [2]: Δ~X | After air drying: Smoothness of hair surface [2]: Δ~X | After air drying: Suppression of hair waviness [2]: Δ~X | When washing: Finger-combing capability [2]: Δ~X | α-helix secondary structure of keratin after heating [3]: maintained | Sensory evaluation of healthy hair after shampoo agent (cohesiveness, moist feeling, gloss, smoothness, non-stickiness) [4]: inferior in general | Sensory evaluation of damaged hair after shampoo agent (cohesiveness, surface smoothness, waviness) [8]: inferior surface smoothness | Rate of compound adhesion to keratin [10]: 11.0%
